Values of other authors in US20240252632A1, “METHODS OF TREATING LUNG CANCER WITH A PD-1 AXIS BINDING ANTAGONIST, AN ANTIMETABOLITE, AND A PLATINUM AGENT” (Genentech, Inc., priority 2018, published 2024).

[NH3+][Pt-2]1([NH3+])[O]C(=O)C2(CCC2)C(=O)[O]1 [Carboplatin, platinum, diammine[1,1-cyclobutanedicarboxylato(2-)-O,O′]—, (SP-4-2)]
solubility in ethanol, acetone, and dimethylacetamide (ethanol, acetone, dimethylacetamide): virtually insoluble
solubility in water (water): approximately 14 mg/mL
